Measurements reported in patent US11052092B2, “N-{[2-(piperidin-1-yl)phenyl](phenyl)methyl}-2-(3-oxo-3,4-dihydro-2H-1,4-benzoxazin-7-yl)acetamide derivatives and related compounds as ROR-gamma modulators for treating autoimmune diseases” (Genfit, priority 2017, dated 2021).

Legend:
[1] = tested on: MPO activity; experiment: MPO activity in ear skin homogenates of the IMQ induced psoriasis study; format: in vivo, C57BL/6 female mice; conditions: 30 mpk oral, in comparison with IMQ-vehicle group
Protocol: 8-10 weeks C57BL/6 female mice received a daily topical dose of 62.5 mg/mouse IMQ cream (Aldara® cream 5%; 3M pharmaceuticals, Sweden) on the shaved back and the right ear for 7 consecutive days. Control mice were treated similarly with a control vehicle cream (Vaseline). Test compound (Cpd 24) was orally administered daily from day 0 to day 7 at 3 mg/mL (30 mg/kg). Test compound was given 8 hours before IMQ application. Mice were killed at day 7, 4 h after the last test compound treatment to analyse skin inflammation parameters.
Ear skin tissue were homogenized in PBS containing a protease inhibitor cocktail (P8340, Sigma-Aldrich) by Ultra Turrax, centrifuged and the supernatant was discarded. The pellet was resuspended in 0.5 mL PBS containing 0.5% hexadecyltrimethyl ammonium bromide (HTAB) and 5 mM ethylene-diamine tetra-acetic acid (EDTA). Following centrifugation, 100 μL of supernatants were placed in test tubes with 200 μL PBS-HTAB-EDTA, 1 mL Hanks' balanced salt solution (HBSS), 100 μL of o-dianisidine dihydrochloride (1.25 mg/mL), and 100 μL H2O2 0.05%. […] The MPO activity was determined as absorbance at 460 nm in comparison with medium.
Statistical evaluation of differences between the experimental groups was determined by using two-way Anova followed by a Bonferroni post test. *** p<0.001, IMQ-Vehicle compared with treatment.

[2] = tested on: MOG-induced EAE mice; experiment: Experimental Autoimmune Encephalomyelitis (EAE) study; format: in vivo, C57BL/6 mice
Source text: 8-10 week old, female C57BL/6 mice were purchased from Janvier Lab (St Berthevin, France) and housed for one week before the start of the studies. EAE was induced by immunization with an emulsion of peptide antigen MOG35-55 (Myelin Oligodendrocyte Glycoprotein) ([…], SEQ ID NO: 1) in complete Freund's Adjuvant (CFA), followed by administration of Pertussis Toxin (PTX) in PBS on the day of immunization and day 1 post immunization, following manufacturer recommendation (Hooke, Kit MOG35-55/CFA Emulsion PTX). Animals were treated with drug beginning 2 days before peptide injection. Animals were randomized into groups for treatment by weight, so that the average weight of each group was similar. The groups were segregated by cage. Compounds according to the invention were suspended in Labrafil (M1944 CS) by sonication and animals were dosed twice daily by gavage with 5 mL/kg body weight. The daily doses of Cpd.24 were 30 and 60 mg/kg (b.i.d.) by gavage. […]
Data are expressed as (FIG. 4A) mean (+/−SEM) of clinical score for each group per day and (FIG. 4B). […]
Statistical evaluation of differences between the experimental groups was determined by using two-way Anova followed by a Bonferroni post test. **p<0.005, Vehicle compared with treatments.

[3] = tested on: Murine EL-4 lymphoma cell line overexpressing human RORγt; experiment: IL-17 secretion from EL4 murine lymphoma; format: cell-based; conditions: Mus musculus; human RORγt-transfected EL4 cells, PMA (10 ng/mL) and ionomycin (1 μM), 24 h; read-out: IC50, IL-17 secretion inhibition
How it was run: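 EL-4 cells electroporated with hRORγt plasmid, seeded at 150000 cells/well and pretreated with compound for 24 h, then stimulated with PMA (10 ng/mL) plus ionomycin (1 μM final) with compound for a further 24 h at 37 °C. IL-17 in supernatant measured by HTRF or ELISA.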

IC50 [3]: < 100 nM
Structure (SMILES): Cc1ccc(C(NC(=O)Cc2ccc3c(c2)CC(=O)N3)c2ccc(C)o2)c(N2CCCCC2)c1 (stereo not shown) [Cpd. 24, N-{[4-methyl-2-(piperidin-1-yl)phenyl](5-methylfuran-2-yl)methyl}-2-(2-oxo-2,3-dihydro-1H-indol-5-yl)acetamide]
MPO activity in ear homogenates [1]: reduced MPO activity | clinical disease score ([2]; by day 15 and maintained through in vivo protocol duration): Clinical disease score improvement was apparent | onset of EAE ([2]; p/os at 60 mg/kg (b.i.d.) for 20 days): delay the onset of EAE
